System: yeast genes (level of expressed mRNA)
Assay: DNA chip analysis of expressed mRNA of yeast genes after 2 h culture with a toxic chemical substance
Assay type: cell-based, Saccharomyces cerevisiae S288C
Conditions: for The level of expressed mRNA in the presence of chemical substance/ (ratio to absence of chemical substance): stress protein genes, DNA chip; for The level of expressed mRNA in the presence of chemical substance/ in its absence, gene YPR184W: yeast gene YPR184W
Summary of the method: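 S. cerevisiae S288C in YPD at 25 °C was exposed at log phase for 2 h to a growth-inhibiting, non-lethal concentration of the chemical. Poly(A) mRNA was reverse-transcribed with Cy3- or Cy5-dUTP and hybridized to a whole-genome yeast DNA chip (65 °C, >12 h). Values are fluorescence ratios versus untreated cells.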

Structure (SMILES): C[S+](C)[O-] [(15), dimethylsulfoxide]
- The level of expressed mRNA in the presence of chemical substance/The level of expressed mRNA in the absence of chemical substance (yeast gene YMR314W): 1.2
- The level of expressed mRNA in the presence of chemical substance/The level of expressed mRNA in the absence of chemical substance (yeast gene YNL006W): 0.7
- The level of expressed mRNA in the presence of chemical substance/The level of expressed mRNA in the absence of chemical substance (yeast gene YNL007C): 0.8
- The level of expressed mRNA in the presence of chemical substance/ (in its absence), gene YNL025C (yeast gene YNL025C, ratio of DNA chip fluorescence intensity to that without chemical substance): 1.4
- The level of expressed mRNA in the presence of chemical substance/ (ratio to absence of chemical substance) (yeast gene YNL064C): 0.7
- The level of expressed mRNA in the presence of chemical substance/ (ratio to absence), gene YNL073W (yeast gene YNL073W, mitochondria-located protein genes, 2 h culture with chemical): 0.7
- The level of expressed mRNA in the presence of chemical substance/The level of expressed mRNA in the absence of chemical substance (yeast gene YNL093W): 0.6
- The level of expressed mRNA in the presence of chemical substance/ (in its absence), gene YNL192W (yeast gene YNL192W, ratio of DNA chip fluorescence intensity to that without chemical substance): 2.1
- The level of expressed mRNA in the presence of chemical substance/The level of expressed mRNA in the absence of chemical substance (yeast gene YNL333W): 1.0
- The level of expressed mRNA in the presence of chemical substance/The level of expressed mRNA in the absence of chemical substance (yeast gene YNR010W): 0.8
- The level of expressed mRNA in the presence of chemical substance/The level of expressed mRNA in the absence of chemical substance (yeast gene YNR069C): 1.0
- The level of expressed mRNA in the presence of chemical substance/ (in its absence), gene YNR072W (yeast gene YNR072W, ratio of DNA chip fluorescence intensity to that without chemical substance): 1.8
- The level of expressed mRNA in the presence of chemical substance/ (ratio to absence of chemical substance) (yeast gene YNR076W): 1.1
- The level of expressed mRNA in the presence of chemical substance/The level of expressed mRNA in the absence of chemical substance (yeast gene YOL013C): 2.7
- The level of expressed mRNA in the presence of chemical substance/ (ratio to absence), gene YOL096C (yeast gene YOL096C, mitochondria-located protein genes, 2 h culture with chemical): 1.0
- The level of expressed mRNA in the presence of chemical substance/ (in its absence), gene YOL096C (yeast gene YOL096C, ratio of DNA chip fluorescence intensity to that without chemical substance): 1.0
- The level of expressed mRNA in the presence of chemical substance/ (in its absence), gene YOL108C (yeast gene YOL108C, ratio of DNA chip fluorescence intensity to that without chemical substance): 1.5
- The level of expressed mRNA in the presence of chemical substance/ (in its absence), gene YOL116W (yeast gene YOL116W, ratio of DNA chip fluorescence intensity to that without chemical substance): 0.7
- The level of expressed mRNA in the presence of chemical substance/ (ratio to absence of chemical substance) (yeast gene YOL161C): 1.1
- The level of expressed mRNA in the presence of chemical substance/The level of expressed mRNA in the absence of chemical substance (yeast gene YOL164W): 1.0
- The level of expressed mRNA in the presence of chemical substance/ (ratio to absence of chemical substance) (yeast gene YOR008C): 0.9
- The level of expressed mRNA in the presence of chemical substance/ (ratio to absence of chemical substance) (yeast gene YOR009W): 0.6
- The level of expressed mRNA in the presence of chemical substance/ (ratio to absence of chemical substance) (yeast gene YOR010C): 0.6
- The level of expressed mRNA in the presence of chemical substance/The level of expressed mRNA in the absence of chemical substance (yeast gene YOR036W): 1.2
- The level of expressed mRNA in the presence of chemical substance/ (in its absence), gene YOR103C (yeast gene YOR103C, ratio of DNA chip fluorescence intensity to that without chemical substance): 1.4
- The level of expressed mRNA in the presence of chemical substance/The level of expressed mRNA in the absence of chemical substance (yeast gene YOR117W): 1.4
- The level of expressed mRNA in the presence of chemical substance/The level of expressed mRNA in the absence of chemical substance (yeast gene YOR124C): 1.3
- The level of expressed mRNA in the presence of chemical substance/The level of expressed mRNA in the absence of chemical substance (yeast gene YOR132W): 1.5
- The level of expressed mRNA in the presence of chemical substance/The level of expressed mRNA in the absence of chemical substance (yeast gene YOR157C): 1.9
- The level of expressed mRNA in the presence of chemical substance/ (in its absence), gene YOR180C (yeast gene YOR180C, ratio of DNA chip fluorescence intensity to that without chemical substance): 1.1
- The level of expressed mRNA in the presence of chemical substance/The level of expressed mRNA in the absence of chemical substance (yeast gene YOR181W): 3.4
- The level of expressed mRNA in the presence of chemical substance/The level of expressed mRNA in the absence of chemical substance (yeast gene YOR185C): 1.0
- The level of expressed mRNA in the presence of chemical substance/ (in its absence), gene YOR251C (yeast gene YOR251C, ratio of DNA chip fluorescence intensity to that without chemical substance): 0.6
- The level of expressed mRNA in the presence of chemical substance/The level of expressed mRNA in the absence of chemical substance (yeast gene YOR259C): 1.3
- The level of expressed mRNA in the presence of chemical substance/The level of expressed mRNA in the absence of chemical substance (yeast gene YOR261C): 1.3
- The level of expressed mRNA in the presence of chemical substance/The level of expressed mRNA in the absence of chemical substance (yeast gene YOR288C): 1.8
- The level of expressed mRNA in the presence of chemical substance/ (ratio to absence), gene YOR316C (yeast gene YOR316C, mitochondria-located protein genes, 2 h culture with chemical): 1.5
- The level of expressed mRNA in the presence of chemical substance/ (in its absence), gene YOR348C (yeast gene YOR348C, ratio of DNA chip fluorescence intensity to that without chemical substance): 1.6
- The level of expressed mRNA in the presence of chemical substance/The level of expressed mRNA in the absence of chemical substance (yeast gene YOR355W): 3.2
- The level of expressed mRNA in the presence of chemical substance/ (in its absence), gene YOR363C (yeast gene YOR363C, ratio of DNA chip fluorescence intensity to that without chemical substance): 1.1
- The level of expressed mRNA in the presence of chemical substance/The level of expressed mRNA in the absence of chemical substance (yeast gene YOR383C): 1.1
- The level of expressed mRNA in the presence of chemical substance/ (ratio to absence), gene YPL040C (yeast gene YPL040C, mitochondria-located protein genes, 2 h culture with chemical): 1.1
- The level of expressed mRNA in the presence of chemical substance/ (ratio to absence of chemical substance) (yeast gene YPL059W): 1.0
- The level of expressed mRNA in the presence of chemical substance/The level of expressed mRNA in the absence of chemical substance (yeast gene YPL089C): 2.6
- The level of expressed mRNA in the presence of chemical substance/The level of expressed mRNA in the absence of chemical substance (yeast gene YPL109C): 1.3
- The level of expressed mRNA in the presence of chemical substance/ (ratio to absence), gene YPL134C (yeast gene YPL134C, mitochondria-located protein genes, 2 h culture with chemical): 1.1
- The level of expressed mRNA in the presence of chemical substance/ (ratio to absence of chemical substance) (yeast gene YPL140C): 0.7
- The level of expressed mRNA in the presence of chemical substance/ (in its absence), gene YPL148C (yeast gene YPL148C, ratio of DNA chip fluorescence intensity to that without chemical substance): 0.6
- The level of expressed mRNA in the presence of chemical substance/The level of expressed mRNA in the absence of chemical substance (yeast gene YPL149W): 0.8
- The level of expressed mRNA in the presence of chemical substance/The level of expressed mRNA in the absence of chemical substance (yeast gene YPL154C): 4.0
- The level of expressed mRNA in the presence of chemical substance/ (ratio to absence of chemical substance) (yeast gene YPL194W): 1.4
- The level of expressed mRNA in the presence of chemical substance/ (ratio to absence of chemical substance) (yeast gene YPR005C): 2.7
- The level of expressed mRNA in the presence of chemical substance/The level of expressed mRNA in the absence of chemical substance (yeast gene YPR103W): 1.0
- The level of expressed mRNA in the presence of chemical substance/The level of expressed mRNA in the absence of chemical substance (yeast gene YPR108W): 1.3
- The level of expressed mRNA in the presence of chemical substance/ (in its absence), gene YPR165W (yeast gene YPR165W, ratio of DNA chip fluorescence intensity to that without chemical substance): 0.9
- The level of expressed mRNA in the presence of chemical substance/ in its absence, gene YPR184W (energy system protein genes, 2 h culture with the chemical, ratio to control without chemical): 1.5
- The level of expressed mRNA in the presence of chemical substance/ in its absence, gene YPR184W (ratio of DNA chip fluorescence intensity to that without chemical substance): 1.5
